Assay results published in patent US20100222322A1, “Non-Nucleoside Reverse Transcriptase Inhibitors” (MERCK & CO., INC., priority 2005, published 2010).
Read-outs that look alike come from different tables or passages of the source.

Test system: HIV replication in T-lymphoid cells
Assay: Spread assay: inhibition of acute HIV infection of T-lymphoid cells
Assay type: cell-based
Conditions: read-out: IC95, spread assay (inhibition of HIV replication)
Method: An assay for the inhibition of acute HIV infection of T-lymphoid cells (alternatively referred to herein as the “spread assay”) was conducted in accordance with Vacca, J. P. et al., Proc. Natl. Acad. Sci. USA 1994, 91: 4096. […] The compounds of Examples 26, 29, 30, 33-35 and 62 were tested in the spread assay up to 10 micromolar, but specific IC95 values were not obtained; i.e., the IC95 values were greater than 10 micromolar. The compounds of Examples 47 and 61 were not tested.

[1] = Human immunodeficiency virus 1, acute HIV infection of T-lymphoid cells, tested up to 10 micromolar
[2] = Human immunodeficiency virus 1, T-lymphoid

Compound: NC(=O)c1[nH]c2ccc(Cl)cc2c1S(=O)(=O)NC1CCC1 [Example 3, 5-chloro-3-[(cyclobutylamino)sulfonyl]-1H-indole-2-carboxamide]
- IC95 [1]: < 1 µM

Compound: NC(=O)c1[nH]c2ccc(Cl)cc2c1S(=O)(=O)N1CCC1 [Example 7, 3-(azetidin-1-ylsulfonyl)-5-chloro-1H-indole-2-carboxamide]
- IC95 [1]: < 1 µM

Compound: COC1CCCN(S(=O)(=O)c2c(C(N)=O)[nH]c3ccc(Br)cc23)C1 (stereo not drawn) [Example 20, 5-bromo-3-[(3-methoxypiperidin-1-yl)sulfonyl]-1H-indole-2-carboxamide]
- IC95 [1]: < 1 µM

Compound: NC(=O)c1[nH]c2ccc(Br)cc2c1S(=O)(=O)N1CCC(F)C1 (stereo not drawn) [Example 22, 5-bromo-3-[(3-fluoropyrrolidin-1-yl)sulfonyl]-1H-indole-2-carboxamide]
- IC95 [1]: < 1 µM

Compound: CCCNS(=O)(=O)c1c(C(N)=O)[nH]c2ccc(Br)cc12 [Example 23, 5-bromo-3-[(propylamino)sulfonyl]-1H-indole-2-carboxamide]
- IC95 [1]: < 1 µM

Compound: COC(=O)c1[nH]c2ccc(Br)cc2c1S(=O)(=O)N1CCCCC1 [Example 24, methyl 5-bromo-3-(piperidin-1-ylsulfonyl)-1H-indole-2-carboxylate]
- IC95 [1]: < 1 µM

Compound: COC(=O)c1[nH]c2ccc(Br)cc2c1S(=O)(=O)N1CCCC1 [Example 25, methyl 5-bromo-3-(pyrrolidin-1-ylsulfonyl)-1H-indole-2-carboxylate]
- IC95 [1]: < 1 µM

Compound: COC(=O)c1[nH]c2ccc(Br)cc2c1S(=O)(=O)NC1CCCC1 [Example 26, methyl 5-bromo-3-[(cyclopentylamino)sulfonyl]-1H-indole-2-carboxylate]
- IC95 [2]: > 10 µM

Compound: CCOC(=O)c1[nH]c2ccc(Br)cc2c1S(=O)(=O)N1CCCCC1 [Example 27, ethyl 5-bromo-3-(piperidin-1-ylsulfonyl)-1H-indole-2-carboxylate]
- IC95 [2]: 1 to 10 µM

Compound: CCOC(=O)c1[nH]c2ccc(Br)cc2c1S(=O)(=O)NCCOC [Example 28, ethyl 5-bromo-3-{[(2-methoxyethyl)amino]sulfonyl}-1H-indole-2-carboxylate]
- IC95 [2]: < 1 µM

Compound: CCOC(=O)c1[nH]c2ccc(Br)cc2c1S(=O)(=O)NC1CCCC1 [Example 29, ethyl 5-bromo-3-[(cyclopentylamino)sulfonyl]-1H-indole-2-carboxylate]
- IC95 [2]: > 10 µM

Compound: CCOC(=O)c1[nH]c2ccc(Br)cc2c1S(=O)(=O)N1CCCC1C(F)(F)F (stereo not drawn) [Example 30, ethyl 5-bromo-3-{[2-(trifluoromethyl)pyrrolidin-1-yl]sulfonyl}-1H-indole-2-carboxylate]
- IC95 [2]: > 10 µM

Compound: O=C(NCCO)c1[nH]c2ccc(Br)cc2c1S(=O)(=O)NC1CC1 [Example 33, 5-bromo-3-[(cyclopropylamino)sulfonyl]-N-(2-hydroxyethyl)-1H-indole-2-carboxamide]
- IC95 [1]: > 10 µM

Compound: O=C(NCCO)c1[nH]c2ccc(Br)cc2c1S(=O)(=O)NC1CCCCC1 [Example 34, 5-bromo-3-[(cyclohexylamino)sulfonyl]-N-(2-hydroxyethyl)-1H-indole-2-carboxamide]
- IC95 [1]: > 10 µM

Compound: O=C(NCCO)c1[nH]c2ccc(Br)cc2c1S(=O)(=O)NC1CCCC1 [Example 35, 5-bromo-3-[(cyclopentylamino)sulfonyl]-N-(2-hydroxyethyl)-1H-indole-2-carboxamide]
- IC95 [1]: > 10 µM

Compound: O=C1CN(S(=O)(=O)c2c(C(=O)NCCO)[nH]c3ccc(Br)cc23)CCN1 [Example 36, 5-bromo-N-(2-hydroxyethyl)-3-[(3-oxopiperazin-1-yl)sulfonyl]-1H-indole-2-carboxamide]
- IC95 [2]: 1 to 10 µM

Compound: NC(=O)c1[nH]c2ccc(Cl)cc2c1S(=O)(=O)N1CCCC1C(F)(F)F (stereo not drawn) [Example 40, 5-chloro-3-{[2-(trifluoromethyl)pyrrolidin-1-yl]sulfonyl}-1H-indole-2-carboxamide]
- IC95 [1]: < 1 µM

Compound: NC(=O)c1[nH]c2ccc(Cl)cc2c1S(=O)(=O)N1CCCC(F)C1 (stereo not drawn) [Example 41, 5-chloro-3-[(3-fluoropiperidin-1-yl)sulfonyl]-1H-indole-2-carboxamide]
- IC95 [1]: < 1 µM

Compound: NC(=O)c1[nH]c2ccc(Br)cc2c1S(=O)(=O)N1CCC(F)(F)C1 [Example 42, 5-bromo-3-[(3,3-difluoropyrrolidin-1-yl)sulfonyl]-1H-indole-2-carboxamide]
- IC95 [1]: < 1 µM

Compound: NC(=O)c1[nH]c2ccc(Br)cc2c1S(=O)(=O)N1CCC(F)(F)CC1 [Example 43, 5-bromo-3-[(4,4-difluoropiperidin-1-yl)sulfonyl]-1H-indole-2-carboxamide]
- IC95 [1]: < 1 µM

Compound: NC(=O)c1[nH]c2ccc(Br)cc2c1S(=O)(=O)NC1CCC1 [Example 44, 5-bromo-3-[(cyclobutylamino)sulfonyl]-1H-indole-2-carboxamide]
- IC95 [1]: < 1 µM

Compound: NC(=O)c1[nH]c2ccc(Br)cc2c1S(=O)(=O)N1CCC(F)CC1 [Example 45, 5-bromo-3-[(4-fluoropiperidin-1-yl)sulfonyl]-1H-indole-2-carboxamide]
- IC95 [1]: < 1 µM

Compound: NC(=O)c1[nH]c2ccc(Cl)cc2c1S(=O)(=O)N1CCC(F)CC1 [Example 46, 5-chloro-3-[(4-fluoropiperidin-1-yl)sulfonyl]-1H-indole-2-carboxamide]
- IC95 [1]: < 1 µM

Compound: O=C(NCCc1cnc[nH]1)c1[nH]c2ccc(Br)cc2c1S(=O)(=O)N1CCCC1 [Example 49, 5-bromo-N-[2-(1H-imidazol-5-yl)ethyl]-3-(pyrrolidin-1-ylsulfonyl)-1H-indole-2-carboxamide]
- IC95 [1]: < 1 µM

Compound: O=C(NCc1cccnc1)c1[nH]c2ccc(Br)cc2c1S(=O)(=O)N1CCCC1 [Example 50, 5-bromo-N-(pyridin-3-ylmethyl)-3-(pyrrolidin-1-ylsulfonyl)-1H-indole-2-carboxamide]
- IC95 [1]: < 1 µM

Compound: O=C(NCCCn1ccnc1)c1[nH]c2ccc(Br)cc2c1S(=O)(=O)N1CCCC1 [Example 52, 5-bromo-N-[3-(1H-imidazol-1-yl)propyl]-3-(pyrrolidin-1-ylsulfonyl)-1H-indole-2-carboxamide]
- IC95 [1]: < 1 µM

Compound: O=C(NCc1ccccn1)c1[nH]c2ccc(Br)cc2c1S(=O)(=O)N1CCCC1 [Example 54, 5-bromo-N-(pyridin-2-ylmethyl)-3-(pyrrolidin-1-ylsulfonyl)-1H-indole-2-carboxamide]
- IC95 [1]: < 1 µM

Compound: NS(=O)(=O)c1ccc(CNC(=O)c2[nH]c3ccc(Br)cc3c2S(=O)(=O)N2CCCC2)cc1 [Example 55, N-[4-(aminosulfonyl)benzyl]-5-bromo-3-(pyrrolidin-1-ylsulfonyl)-1H-indole-2-carboxamide]
- IC95 [1]: < 1 µM

Compound: COCCNC(=O)c1[nH]c2ccc(Br)cc2c1S(=O)(=O)N1CCCC1 [Example 56, 5-bromo-N-(2-methoxyethyl)-3-(pyrrolidin-1-ylsulfonyl)-1H-indole-2-carboxamide]
- IC95 [1]: < 1 µM

Compound: O=C(NCc1cscn1)c1[nH]c2ccc(Br)cc2c1S(=O)(=O)N1CCCC1 [Example 57, 5-bromo-3-(pyrrolidin-1-ylsulfonyl)-N-(1,3-thiazol-4-ylmethyl)-1H-indole-2-carboxamide]
- IC95 [1]: < 1 µM

Compound: O=C(NCc1ccon1)c1[nH]c2ccc(Br)cc2c1S(=O)(=O)N1CCCC1 [Example 58, 5-bromo-N-(isoxazol-3-ylmethyl)-3-(pyrrolidin-1-ylsulfonyl)-1H-indole-2-carboxamide]
- IC95 [1]: < 1 µM

Compound: CN1CCC(CNC(=O)c2[nH]c3ccc(Br)cc3c2S(=O)(=O)N2CCCC2)C1 (stereo not drawn) [Example 60, 5-bromo-N-[(1-methylpyrrolidin-3-yl)methyl]-3-(pyrrolidin-1-ylsulfonyl)-1H-indole-2-carboxamide]
- IC95 [1]: < 1 µM

Compound: O=C(NCc1ncc(-c2ccccc2)[nH]1)c1[nH]c2ccc(Br)cc2c1S(=O)(=O)N1CCCC1 [Example 62, 5-bromo-N-[(5-phenyl-1H-imidazol-2-yl)methyl]-3-(pyrrolidin-1-ylsulfonyl)-1H-indole-2-carboxamide]
- IC95 [1]: > 10 µM

Compound: O=C(NCc1nc2cccnc2[nH]1)c1[nH]c2ccc(Br)cc2c1S(=O)(=O)N1CCCC1 [Example 63, 5-bromo-N-(3H-imidazo[4,5-b]pyridin-2-ylmethyl)-3-(pyrrolidin-1-ylsulfonyl)-1H-indole-2-carboxamide]
- IC95 [1]: < 1 µM

Compound: C=Cc1ccc2[nH]c(C(N)=O)c(S(=O)(=O)N3CCCC3)c2c1 [Example 66, 3-(pyrrolidin-1-ylsulfonyl)-5-vinyl-1H-indole-2-carboxamide]
- IC95 [1]: < 1 µM

Compound: NC(=O)c1[nH]c2ccc(-c3cccc4ncccc34)cc2c1S(=O)(=O)N1CCCC1 [Example 67, 3-(pyrrolidin-1-ylsulfonyl)-5-quinolin-5-yl-1H-indole-2-carboxamide]
- IC95 [1]: < 1 µM
